# Activity calls are given as the source filed them.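 Rule for the calls: active = cytotoxic compounds, leaving cell viability under 88%; inactive = viability at or above 88%.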
# Tested on: U937 viability, trypan blue exclusion, 24 h
# Test: U937 cell viability loss by dye exclusion – trypan blue, cytotoxicity control for VLA-4 allosteric modulator project (AID 588370)
# Conditions: at 10 µM; active compounds read low
row,Compound,viability
1,CN(C)CCOc1ccc(-c2c(-c3ccccc3)sc3ccccc23)cc1,97% (inactive)
2,COc1cccc(-c2sc3ccccc3c2-c2ccc(OCCN(C)C)cc2)c1,97% (inactive)
3,c1ccc(-c2sc3ccccc3c2-c2ccc(OCCN3CCCC3)cc2)cc1,97% (inactive)
4,c1ccc2c(-c3ccc(OCCN4CCCCC4)cc3)c(-c3ccsc3)sc2c1,96% (inactive)
5,c1ccc2c(-c3ccc(OCCN4CCCC4)cc3)c(-c3ccsc3)sc2c1,93% (inactive)
6,COc1cccc(-c2sc3ccccc3c2-c2ccc(OCCN3CCCC3)cc2)c1,84%
7,COc1ccc(-c2sc3ccccc3c2-c2ccc(OCCN(C)C)cc2)cc1,96% (inactive)

# Source: PubChem BioAssay AID588370 (NMMLSC, 2011)
